Results published in DBAASP.
In brackets after ≈: the same amount, converted by molar mass. Values belong to the compound of their own block, whether it stands above or below them.

Columns and labels:
Assay in all cases: ≥ marks a high value that may be exact or a test limit, other limits are often not marked, values filed in µg/mL are converted to µM
Candida albicans LM108 = system: Candida albicans LM108
[1] = system: Candida tropicalis ATCC 13803
[2] = system: Trichophyton rubrum LM640
Aspergillus flavus LM26 = system: Aspergillus flavus LM26
Aspergillus flavus LM247 = system: Aspergillus flavus LM247
Candida albicans LM106 = system: Candida albicans LM106
[3] = system: Staphylococcus aureus ATCC 25923
Streptococcus mutans = system: Streptococcus mutans
Serratia marcescens = system: Serratia marcescens
Pseudomonas putida = system: Pseudomonas putida
[4] = system: Salmonella typhimurium ATCC 19430
[5] = system: Trichophyton rubrum KCTC 6345
[6] = system: Escherichia coli ATCC 23716
[7] = system: Candida albicans ATCC 90028
Saccharomyces cerevisiae = system: Saccharomyces cerevisiae
Pseudomonas aeruginosa 1 = system: Pseudomonas aeruginosa 1
[8] = system: Pseudomonas aeruginosa ATCC 27853
[9] = system: Enterococcus faecium ATCC 19434
[10] = system: Trichosporon beigelii KCTC 7707
Candida albicans = system: Candida albicans
Cryptococcus neoformans = system: Cryptococcus neoformans
Escherichia coli = system: Escherichia coli
[11] = system: Escherichia coli O157:H7 ATCC 43895
Salmonella typhimurium = system: Salmonella typhimurium
Streptococcus pneumoniae = system: Streptococcus pneumoniae
Pseudomonas aeruginosa = system: Pseudomonas aeruginosa
Bacillus subtilis SMY = system: Bacillus subtilis SMY
Bacillus subtilis = system: Bacillus subtilis
[12] = system: Candida parapsilosis ATCC 22019
Staphylococcus aureus 1 = system: Staphylococcus aureus 1
Staphylococcus aureus MR = system: Staphylococcus aureus MR
[13] = system: Escherichia coli ATCC 10536
[14] = system: Trichophyton mentagrophytes
[15] = system: Pseudomonas aeruginosa ATCC BAA-427
Sporothrix schenckii = system: Sporothrix schenckii
Aspergillus fumigatus = system: Aspergillus fumigatus
[16] = system: Staphylococcus aureus ATCC 9144
[17] = system: Klebsiella pneumoniae ATCC 27736
[18] = system: Staphylococcus epidermidis NRRL B-4268
[19] = system: Bacillus subtilis ATCC 6633
[20] = system: Pseudomonas aeruginosa ATCC 47085
[21] = system: Fusarium graminearum PH-1
[22] = system: Escherichia coli ATCC 25922
[23] = system: Klebsiella pneumoniae ATCC 200603
[24] = system: Candida tropicalis PCM 2681
[25] = system: Candida albicans ATCC 10231
[26] = system: Pseudomonas aeruginosa ATCC 9027
[27] = system: Staphylococcus epidermidis ATCC 14490

SMILES: CC[C@H](C)[C@H](NC(=O)CNC(=O)[C@@H](NC(=O)[C@H](Cc1ccccc1)NC(=O)[C@H](CC(=O)O)NC(=O)[C@H](CCSC)NC(=O)[C@H](CC(=O)O)NC(=O)[C@H](C)N)[C@@H](C)O)C(=O)N[C@@H](C)C(=O)N[C@@H](CCC(=O)O)C(=O)N[C@@H](CO)C(=O)N[C@H](C(=O)N[C@H](C(=O)N[C@@H](CCCCN)C(=O)N[C@@H](CCCCN)C(=O)N[C@H](C(=O)N[C@@H](CCCCN)C(=O)N[C@@H](CCC(=O)O)C(=O)N[C@H](C(=O)N[C@@H](CC(N)=O)C(=O)N[C@@H](C)C(=O)N[C@@H](CCCCN)C(=O)N1CCC[C@H]1C(=O)N1CCC[C@H]1C(=O)N[C@@H](C)C(=O)O)[C@@H](C)O)[C@@H](C)CC)[C@@H](C)CC)[C@@H](C)CC [ADMDFTGIAESIIKKIKETNAKPPA]
MIC (Candida albicans LM108): ≥ 381 µM | MIC [1]: ≥ 47.6 µM | MIC [2]: ≥ 381 µM | MIC (Aspergillus flavus LM26): ≥ 47.6 µM | MIC (Aspergillus flavus LM247): ≥ 47.6 µM | MIC (Candida albicans LM106): ≥ 47.6 µM

SMILES: CC(C)C[C@H](NC(=O)CNC(=O)[C@H](C)N)C(=O)N[C@@H](CCC(N)=O)C(=O)N[C@@H](Cc1ccccc1)C(=O)N1CCC[C@H]1C(=O)N[C@H](C(=O)NCC(=O)N[C@@H](CCCN=C(N)N)C(=O)N[C@H](C(=O)N[C@@H](Cc1cnc[nH]1)C(=O)N[C@@H](CCCN=C(N)N)C(=O)N[C@@H](CC(C)C)C(=O)N[C@@H](CC(C)C)C(=O)N[C@@H](CCCN=C(N)N)C(=O)N[C@@H](CCCCN)C(=O)O)C(C)C)C(C)C [AGLQFPVGRVHRLLRK]
MIC [3]: 25 µM (≈ 46.2 µg/mL) | MIC (Streptococcus mutans): 2.17 µM (≈ 4 µg/mL) | MIC (Serratia marcescens): 1.08 µM (≈ 2 µg/mL) | MIC (Pseudomonas putida): 2.17 µM (≈ 4 µg/mL) | MIC [4]: 6.3 µM (≈ 11.6 µg/mL) | MIC [5]: 12.5 µM (≈ 23.1 µg/mL) | MIC [6]: ≥ 139 µM | MIC [7]: 12.5 µM (≈ 23.1 µg/mL) | MIC (Saccharomyces cerevisiae): 4.33 µM (≈ 8 µg/mL) | MIC (Pseudomonas aeruginosa 1): 6.3 µM (≈ 11.6 µg/mL) | MIC [8]: 12.5 µM (≈ 23.1 µg/mL) | MIC [9]: 25 µM (≈ 46.2 µg/mL) | MIC [10]: 12.5 µM (≈ 23.1 µg/mL) | MIC (Candida albicans): 4.33 µM (≈ 8 µg/mL) | MIC (Cryptococcus neoformans): 4.33 µM (≈ 8 µg/mL) | MIC (Escherichia coli): 2.17 µM (≈ 4 µg/mL) | MIC [11]: 6.3 µM (≈ 11.6 µg/mL) | MIC (Salmonella typhimurium): 1.08 µM (≈ 2 µg/mL) | MIC (Streptococcus pneumoniae): 2.17 µM (≈ 4 µg/mL) | MIC (Pseudomonas aeruginosa): 12.5 µM (≈ 23.1 µg/mL) | MIC (Bacillus subtilis SMY): ≥ 139 µM | MIC (Bacillus subtilis): 2.17 µM (≈ 4 µg/mL) | MIC [12]: 25 µM (≈ 46.2 µg/mL) | MIC (Staphylococcus aureus 1): 12.5 µM (≈ 23.1 µg/mL)

Now from value to compound:

MIC (Staphylococcus aureus MR): 25 µM (≈ 55.1 µg/mL) | MIC [13]: 6 µM (≈ 13.2 µg/mL) | MIC [14]: 3 µM (≈ 6.61 µg/mL) | MIC [15]: 25 µM (≈ 55.1 µg/mL) | MIC (Sporothrix schenckii): 3 µM (≈ 6.61 µg/mL) | MIC (Aspergillus fumigatus): 3 µM (≈ 6.61 µg/mL) | MIC (Candida albicans): 3.1 µM (≈ 6.83 µg/mL) | MIC (Cryptococcus neoformans): 6.1 µM (≈ 13.4 µg/mL) | MIC [16]: 6.25 µM (≈ 13.8 µg/mL) | MIC [17]: 6 µM (≈ 13.2 µg/mL) | MIC [18]: 13.2 µM (≈ 29.1 µg/mL) | MIC [19]: 11.3 µM (≈ 24.9 µg/mL) | MIC [12]: 3 µM (≈ 6.61 µg/mL)
SMILES: CC(C)C[C@H](NC(=O)[C@H](CCCCN)NC(=O)[C@H](CC(C)C)NC(=O)[C@H](Cc1ccccc1)NC(=O)[C@H](CCCN=C(N)N)NC(=O)[C@H](CCCN=C(N)N)NC(=O)[C@H](Cc1ccccc1)NC(=O)[C@H](Cc1c[nH]c2ccccc12)NC(=O)[C@H](CCCCN)NC(=O)[C@H](CCCN=C(N)N)NC(=O)[C@H](Cc1ccccc1)NC(=O)[C@H](CCCN=C(N)N)NC(=O)[C@H](CCCN=C(N)N)NC(=O)[C@@H](N)Cc1ccccc1)C(=O)N[C@@H](Cc1ccccc1)C(N)=O [FRRFRKWFRRFLKLF]

MIC [3]: 12.7 µM (≈ 32 µg/mL) | MIC [20]: 12.7 µM (≈ 32 µg/mL)
SMILES: CC(C)C[C@H](NC(=O)CN)C(=O)N[C@@H](CC(C)C)C(=O)N[C@@H](CCCN=C(N)N)C(=O)N[C@@H](CCCCN)C(=O)N[C@@H](Cc1c[nH]c2ccccc12)C(=O)NCC(=O)N[C@@H](CCCCN)C(=O)N[C@@H](CCCCN)C(=O)N[C@@H](Cc1c[nH]c2ccccc12)C(=O)N[C@@H](CCCCN)C(=O)N[C@@H](CCC(=O)O)C(=O)N[C@@H](Cc1ccccc1)C(=O)N[C@@H](CC(C)C)C(=O)N[C@@H](CCCN=C(N)N)C(=O)N[C@@H](CCCN=C(N)N)C(=O)N[C@H](C(=O)N[C@@H](Cc1c[nH]c2ccccc12)C(=O)N[C@@H](CCCCN)C(N)=O)C(C)C [GLLRKWGKKWKEFLRRVWK]

MIC [21]: ≥ 48 µM
SMILES: C[C@@H]1NC(=O)[C@@H](NC(=O)[C@@H]2CCCN2C(=O)CN)CSSC[C@@H](C(=O)O)NC(=O)[C@H](CC(N)=O)NC(=O)[C@H](Cc2cnc[nH]2)NC(=O)[C@H](CC(=O)O)NC(=O)[C@H](CO)NC1=O [GPCASDHNC]

MIC [3]: > 329 µM | MIC [22]: > 329 µM | MIC [23]: ≥ 329 µM | MIC [24]: ≥ 329 µM | MIC [25]: > 329 µM | MIC [26]: > 329 µM | MIC [19]: ≥ 329 µM | MIC [27]: ≥ 329 µM
SMILES: NC(=O)CC[C@H](NC(=O)[C@H](CCC(N)=O)NC(=O)[C@H](CCC(=O)O)NC(=O)[C@H](Cc1ccccc1)NC(=O)[C@H](CCC(=O)O)NC(=O)[C@H](Cc1c[nH]c2ccccc12)NC(=O)[C@H](CCC(=O)O)NC(=O)[C@H](Cc1ccccc1)NC(=O)[C@H](CCCN=C(N)N)NC(=O)[C@H](CCC(N)=O)NC(=O)[C@@H](N)CCC(N)=O)C(N)=O [QQRFEWEFEQQ]
